In ChEMBL document CHEMBL4396901, “Discovery of Potent and Noncovalent Reversible EGFR Kinase Inhibitors of EGFRL858R/T790M/C797S” (ACS Med Chem Lett, 2019):
Activity calls are given as the source filed them. The rule behind the calls is not given here.

Key:
[1] = system: Epidermal growth factor receptor (Homo sapiens), P00533 [L858R,T790M,C797S]; assay: (§1) Inhibition of recombinant human C-terminal His-tagged/N-terminal GST-tagged EGFR (668 to 1210 residues) T790M/L858R/C797S mutant expressed in baculovirus expression system using poly (Glu,Tyr) 4:1 as substrate incubated for 1 hr in presence of ATP by ELISA
[2] = system: BaF3; assay: Cytotoxicity against mouse BAF3 cells incubated for 72 hrs by resazurin dye based assay; format: cell-based; settings: BaF3, 72 h
[3] = biological target: Tyrosine-protein kinase Yes (Homo sapiens) (UniProt P07947); assay: Inhibition of YES (unknown origin) at 100 nM relative to control
[4] = biological target: Vascular endothelial growth factor receptor 2 (Homo sapiens) (UniProt P35968); assay: Inhibition of VEGFR2 (unknown origin) at 100 nM relative to control
[5] = system: Epidermal growth factor receptor (Homo sapiens), P00533 [L858R,T790M,C797S]; assay: Inhibition of EGFR L858R/T790M/C797S mutant (unknown origin) transfected in mouse BAF3 cells assessed as inhibition of EGF-induced EGFR phosphorylation at 0.1 uM by Western blot analysis; format: cell-based
[6] = biological target: Mast/stem cell growth factor receptor Kit (Homo sapiens) (UniProt P10721); assay: Inhibition of cKIT (unknown origin) at 100 nM relative to control
[7] = biological target: Receptor tyrosine-protein kinase erbB-2 (Homo sapiens) (UniProt P04626); assay: Inhibition of ErbB2 (unknown origin) at 100 nM relative to control
[8] = Aqueous solubility of the compound in PBS buffer at pH 6.8 by UV-Vis spectrophotometric method; format: physicochemical
[9] = biological target: ALK tyrosine kinase receptor (Homo sapiens) (UniProt Q9UM73); assay: Inhibition of ALK (unknown origin) at 100 nM relative to control
[10] = biological target: NT-3 growth factor receptor (Homo sapiens) (UniProt Q16288); assay: Inhibition of TrkC (unknown origin) at 100 nM relative to control
[11] = biological target: High affinity nerve growth factor receptor (Homo sapiens) (UniProt P04629); assay: Inhibition of TrkA (unknown origin) at 100 nM relative to control
[12] = biological target: Proto-oncogene tyrosine-protein kinase Src (Homo sapiens) (UniProt P12931); assay: Inhibition of Src (unknown origin) at 100 nM relative to control
[13] = biological target: Fibroblast growth factor receptor 1 (Homo sapiens) (UniProt P11362); assay: Inhibition of FGFR1 (unknown origin) at 100 nM relative to control
[14] = biological target: Tyrosine-protein kinase receptor UFO (Homo sapiens) (UniProt P30530); assay: Inhibition of AXL (unknown origin) at 100 nM relative to control
[15] = biological target: Insulin receptor (Homo sapiens) (UniProt P06213); assay: Inhibition of IR (unknown origin) at 100 nM relative to control
[16] = biological target: Ephrin type-B receptor 2 (Homo sapiens) (UniProt P29323); assay: Inhibition of EPHB2 (unknown origin) at 100 nM relative to control
[17] = biological target: Macrophage colony-stimulating factor 1 receptor (Homo sapiens) (UniProt P07333); assay: Inhibition of CSF1R (unknown origin) at 100 nM relative to control
[18] = system: Epidermal growth factor receptor (Homo sapiens), P00533 [L858R,T790M,C797S]; assay: Inhibition of EGFR L858R/T790M/C797S mutant (unknown origin) transfected in mouse BAF3 cells assessed as inhibition of EGF-induced EGFR phosphorylation by Western blot analysis; format: cell-based
[19] = biological target: Epidermal growth factor receptor (Homo sapiens, UniProt P00533, C797S/EX19DEL/T790M); assay: Inhibition of EGFR 19D/T790M/C797S mutant (unknown origin) using poly (Glu,Tyr) 4:1 as substrate incubated for 1 hr in presence of ATP by ELISA
[20] = biological target: Fibroblast growth factor receptor 4 (Homo sapiens) (UniProt P22455); assay: Inhibition of FGFR4 (unknown origin) at 100 nM relative to control
[21] = biological target: Receptor tyrosine-protein kinase erbB-4 (Homo sapiens) (UniProt Q15303); assay: Inhibition of ErbB4 (unknown origin) at 100 nM relative to control
[22] = biological target: Hepatocyte growth factor receptor (Homo sapiens) (UniProt P08581); assay: Inhibition of MET (unknown origin) at 100 nM relative to control
[23] = biological target: Platelet-derived growth factor receptor beta (Homo sapiens) (UniProt P09619); assay: Inhibition of PDGFRbeta (unknown origin) at 100 nM relative to control
[24] = biological target: Tyrosine-protein kinase JAK1 (Homo sapiens) (UniProt P23458); assay: Inhibition of JAK1 (unknown origin) at 100 nM relative to control
[25] = system: BaF3; assay: Antiproliferative activity against mouse BAF3 cells transfected with EGFR 19D/T790M/C797S mutant (unknown origin) incubated for 72 hrs by resazurin dye based assay; format: functional, cell-based; settings: BaF3, 72 h
[26] = biological target: Tyrosine-protein kinase Blk (Homo sapiens) (UniProt P51451); assay: Inhibition of BLK (unknown origin) at 100 nM relative to control
[27] = biological target: Ephrin type-A receptor 2 (Homo sapiens) (UniProt P29317); assay: Inhibition of EPHA2 (unknown origin) at 100 nM relative to control
[28] = biological target: Epidermal growth factor receptor (Homo sapiens, UniProt P00533, C797S/L858R/T790M); assay: as §1
[29] = Clearance in rat at 1 mg/kg, iv measured for 0.083 to 24 hrs by LC-MS/MS analysis; format: ADME, organism-based; settings: in vivo
[30] = biological target: Inhibitor of NF-kappa-B kinase (IKK) (Homo sapiens) (UniProt O14920+O15111+Q9Y6K9); assay: Inhibition of IKK (unknown origin) at 100 nM relative to control; format: protein-complex assay
[31] = biological target: Tyrosine-protein kinase ABL1 (Homo sapiens) (UniProt P00519); assay: Inhibition of Abl (unknown origin) at 100 nM relative to control
[32] = biological target: Tyrosine-protein kinase TXK (Homo sapiens) (UniProt P42681); assay: Inhibition of Txk (unknown origin) at 100 nM relative to control
[33] = biological target: Proto-oncogene tyrosine-protein kinase receptor Ret (Homo sapiens) (UniProt P07949); assay: Inhibition of RET (unknown origin) at 100 nM relative to control
[34] = biological target: Receptor-type tyrosine-protein kinase FLT3 (Homo sapiens) (UniProt P36888); assay: Inhibition of FLT3 (unknown origin) at 100 nM relative to control
[35] = biological target: Fibroblast growth factor receptor 2 (Homo sapiens) (UniProt P21802); assay: Inhibition of FGFR2 (unknown origin) at 100 nM relative to control
[36] = system: A-431; assay: Antiproliferative activity human A431 cells incubated for 72 hrs by SRB assay; format: functional, cell-based; settings: A-431, 72 h
[37] = biological target: Vascular endothelial growth factor receptor 3 (Homo sapiens) (UniProt P35916); assay: Inhibition of VEGFR3 (unknown origin) at 100 nM relative to control
[38] = biological target: Vascular endothelial growth factor receptor 1 (Homo sapiens) (UniProt P17948); assay: Inhibition of VEGFR1 (unknown origin) at 100 nM relative to control
[39] = system: NCI-H1975; assay: Antiproliferative activity human NCI-H1975 cells incubated for 72 hrs by SRB assay; format: functional, cell-based; settings: NCI-H1975, 72 h
[40] = Oral bioavailability in rat at 10 mg/kg measured for 0.083 to 24 hrs by LC-MS/MS analysis; format: ADME, organism-based; settings: in vivo
[41] = biological target: Tyrosine-protein kinase BTK (Homo sapiens) (UniProt Q06187); assay: Inhibition of BTK (unknown origin) at 100 nM relative to control
[42] = biological target: Tyrosine-protein kinase JAK3 (Homo sapiens) (UniProt P52333); assay: Inhibition of JAK3 (unknown origin) at 100 nM relative to control
[43] = biological target: Fibroblast growth factor receptor 3 (Homo sapiens) (UniProt P22607); assay: Inhibition of FGFR3 (unknown origin) at 100 nM relative to control
[44] = system: BaF3; assay: Antiproliferative activity against mouse BAF3 cells transfected with EGFR L858R/T790M/C797S mutant (unknown origin) incubated for 72 hrs by resazurin dye based assay; format: functional, cell-based; settings: BaF3, 72 h
[45] = biological target: Insulin-like growth factor 1 receptor (Homo sapiens) (UniProt P08069); assay: Inhibition of IGF1R (unknown origin) at 100 nM relative to control
[46] = system: Epidermal growth factor receptor (Homo sapiens), P00533 [L858R,T790M,C797S]; assay: Inhibition of recombinant human C-terminal His-tagged/N-terminal GST-tagged EGFR (668 to 1210 residues) T790M/L858R/C797S mutant expressed in baculovirus expression system at 100 nM using poly (Glu,Tyr) 4:1 as substrate incubated for 1 hr in presence of ATP by ELISA relative to control
[47] = biological target: BDNF/NT-3 growth factors receptor (Homo sapiens) (UniProt Q16620); assay: Inhibition of TrkB (unknown origin) at 100 nM relative to control
[48] = biological target: Cytoplasmic tyrosine-protein kinase BMX (Homo sapiens) (UniProt P51813); assay: Inhibition of BMX (unknown origin) at 100 nM relative to control
[49] = biological target: Focal adhesion kinase 1 (Homo sapiens) (UniProt Q05397); assay: Inhibition of FAK (unknown origin) at 100 nM relative to control
[50] = biological target: Platelet-derived growth factor receptor alpha (Homo sapiens) (UniProt P16234); assay: Inhibition of PDGFRalpha (unknown origin) at 100 nM relative to control
[51] = system: Epidermal growth factor receptor (Homo sapiens), P00533 [L858R,T790M]; assay: Inhibition of human EGFR T790M/L858R mutant using poly (Glu,Tyr) 4:1 as substrate incubated for 1 hr in presence of ATP by ELISA

Sequence of Epidermal growth factor receptor (Homo sapiens), P00533 [L858R,T790M,C797S] (P00533 whole entry T790M/C797S/L858R, the tested form may be a part): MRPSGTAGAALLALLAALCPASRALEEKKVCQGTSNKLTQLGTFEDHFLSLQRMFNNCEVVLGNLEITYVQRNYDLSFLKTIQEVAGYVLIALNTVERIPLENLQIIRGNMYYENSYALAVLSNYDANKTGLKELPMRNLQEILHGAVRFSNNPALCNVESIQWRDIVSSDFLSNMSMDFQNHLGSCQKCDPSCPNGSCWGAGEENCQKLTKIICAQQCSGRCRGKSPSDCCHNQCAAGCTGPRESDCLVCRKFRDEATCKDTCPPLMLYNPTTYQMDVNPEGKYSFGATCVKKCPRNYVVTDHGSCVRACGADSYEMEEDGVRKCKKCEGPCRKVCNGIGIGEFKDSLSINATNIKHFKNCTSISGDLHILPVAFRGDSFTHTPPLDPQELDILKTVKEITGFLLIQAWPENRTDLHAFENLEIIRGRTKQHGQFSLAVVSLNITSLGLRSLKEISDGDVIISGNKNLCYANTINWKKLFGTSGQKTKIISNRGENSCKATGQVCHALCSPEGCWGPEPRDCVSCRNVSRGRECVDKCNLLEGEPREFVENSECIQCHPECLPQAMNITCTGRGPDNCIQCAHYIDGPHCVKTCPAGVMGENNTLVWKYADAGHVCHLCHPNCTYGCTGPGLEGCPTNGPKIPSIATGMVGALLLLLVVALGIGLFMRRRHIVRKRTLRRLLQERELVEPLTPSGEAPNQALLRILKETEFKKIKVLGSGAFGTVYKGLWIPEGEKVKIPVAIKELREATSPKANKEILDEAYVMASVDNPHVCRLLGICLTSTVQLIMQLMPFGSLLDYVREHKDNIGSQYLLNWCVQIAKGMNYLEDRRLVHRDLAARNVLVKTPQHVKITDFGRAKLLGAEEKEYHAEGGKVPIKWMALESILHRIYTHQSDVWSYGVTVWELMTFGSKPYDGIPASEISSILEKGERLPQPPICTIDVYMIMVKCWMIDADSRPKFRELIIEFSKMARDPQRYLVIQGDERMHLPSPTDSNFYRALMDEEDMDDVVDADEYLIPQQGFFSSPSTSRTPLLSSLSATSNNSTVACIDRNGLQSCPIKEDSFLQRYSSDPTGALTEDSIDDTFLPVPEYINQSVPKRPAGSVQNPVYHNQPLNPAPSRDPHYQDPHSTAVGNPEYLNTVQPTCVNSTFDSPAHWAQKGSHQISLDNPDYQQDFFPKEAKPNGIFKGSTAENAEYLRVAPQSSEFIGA
Sequence of Epidermal growth factor receptor (Homo sapiens, UniProt P00533, C797S/L858R/T790M) (P00533 whole entry T790M/C797S/L858R): as the sequence (P00533 whole entry T790M/C797S/L858R, the tested form may be a part) above
Sequence of Insulin receptor (Homo sapiens) (P06213 28-758 limits assumed): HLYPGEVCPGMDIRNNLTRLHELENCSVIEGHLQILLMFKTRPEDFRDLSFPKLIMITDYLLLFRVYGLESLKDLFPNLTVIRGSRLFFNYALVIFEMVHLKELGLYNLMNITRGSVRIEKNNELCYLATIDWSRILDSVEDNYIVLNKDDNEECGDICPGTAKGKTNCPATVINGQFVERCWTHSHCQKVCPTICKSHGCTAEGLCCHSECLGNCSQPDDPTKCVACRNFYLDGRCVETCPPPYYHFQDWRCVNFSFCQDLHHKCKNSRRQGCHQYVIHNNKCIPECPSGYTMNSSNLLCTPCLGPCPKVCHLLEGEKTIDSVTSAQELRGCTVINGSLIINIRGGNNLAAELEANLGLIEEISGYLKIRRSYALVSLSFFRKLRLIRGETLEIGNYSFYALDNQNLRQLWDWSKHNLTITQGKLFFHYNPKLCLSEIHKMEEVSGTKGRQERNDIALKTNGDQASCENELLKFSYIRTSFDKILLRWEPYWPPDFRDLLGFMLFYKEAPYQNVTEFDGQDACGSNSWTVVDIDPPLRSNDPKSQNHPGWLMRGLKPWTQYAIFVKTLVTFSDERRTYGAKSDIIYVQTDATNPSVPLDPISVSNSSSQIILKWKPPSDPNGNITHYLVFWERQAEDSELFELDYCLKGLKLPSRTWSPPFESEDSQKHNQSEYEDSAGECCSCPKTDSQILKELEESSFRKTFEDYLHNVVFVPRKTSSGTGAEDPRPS
Sequence of Insulin receptor (Homo sapiens) (P06213 763-1382 limits assumed): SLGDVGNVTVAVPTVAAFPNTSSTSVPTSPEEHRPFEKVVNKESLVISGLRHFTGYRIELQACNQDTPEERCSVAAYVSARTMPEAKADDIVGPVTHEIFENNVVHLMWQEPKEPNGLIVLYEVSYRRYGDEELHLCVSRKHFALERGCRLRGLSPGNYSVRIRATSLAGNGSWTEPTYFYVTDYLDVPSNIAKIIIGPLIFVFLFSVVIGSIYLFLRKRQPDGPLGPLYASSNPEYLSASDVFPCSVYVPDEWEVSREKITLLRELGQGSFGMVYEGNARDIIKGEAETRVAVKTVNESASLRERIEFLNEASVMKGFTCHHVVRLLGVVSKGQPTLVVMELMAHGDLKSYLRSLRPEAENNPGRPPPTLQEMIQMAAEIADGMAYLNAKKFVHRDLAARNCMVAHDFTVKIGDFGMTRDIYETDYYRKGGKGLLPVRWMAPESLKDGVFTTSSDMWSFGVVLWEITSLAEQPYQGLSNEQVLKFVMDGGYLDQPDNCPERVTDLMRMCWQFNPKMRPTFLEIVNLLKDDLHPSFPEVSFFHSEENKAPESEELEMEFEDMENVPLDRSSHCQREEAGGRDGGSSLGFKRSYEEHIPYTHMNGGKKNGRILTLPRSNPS
Sequence of Fibroblast growth factor receptor 2 (Homo sapiens) (P21802 22-821 limits assumed): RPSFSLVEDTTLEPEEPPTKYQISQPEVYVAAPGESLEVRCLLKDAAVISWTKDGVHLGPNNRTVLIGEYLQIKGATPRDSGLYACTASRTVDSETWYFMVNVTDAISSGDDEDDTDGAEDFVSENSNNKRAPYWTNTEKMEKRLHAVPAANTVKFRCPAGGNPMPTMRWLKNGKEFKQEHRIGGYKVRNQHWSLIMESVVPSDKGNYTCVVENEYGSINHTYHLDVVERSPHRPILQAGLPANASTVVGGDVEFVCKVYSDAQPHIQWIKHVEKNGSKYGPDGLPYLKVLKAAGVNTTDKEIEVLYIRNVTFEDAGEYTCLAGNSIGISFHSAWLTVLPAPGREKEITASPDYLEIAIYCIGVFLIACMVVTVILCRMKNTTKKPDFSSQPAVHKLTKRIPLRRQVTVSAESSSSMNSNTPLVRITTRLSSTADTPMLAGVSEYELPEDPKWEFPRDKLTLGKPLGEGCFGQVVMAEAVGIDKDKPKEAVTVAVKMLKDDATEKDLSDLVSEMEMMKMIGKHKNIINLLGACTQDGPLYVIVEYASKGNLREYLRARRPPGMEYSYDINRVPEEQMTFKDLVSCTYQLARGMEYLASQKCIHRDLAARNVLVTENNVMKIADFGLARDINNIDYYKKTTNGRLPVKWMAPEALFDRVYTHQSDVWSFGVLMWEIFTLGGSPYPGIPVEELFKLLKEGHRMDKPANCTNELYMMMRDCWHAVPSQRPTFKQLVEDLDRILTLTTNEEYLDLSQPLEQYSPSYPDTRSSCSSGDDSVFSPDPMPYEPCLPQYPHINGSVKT
Sequence of Tyrosine-protein kinase TXK (Homo sapiens) (P42681 whole entry): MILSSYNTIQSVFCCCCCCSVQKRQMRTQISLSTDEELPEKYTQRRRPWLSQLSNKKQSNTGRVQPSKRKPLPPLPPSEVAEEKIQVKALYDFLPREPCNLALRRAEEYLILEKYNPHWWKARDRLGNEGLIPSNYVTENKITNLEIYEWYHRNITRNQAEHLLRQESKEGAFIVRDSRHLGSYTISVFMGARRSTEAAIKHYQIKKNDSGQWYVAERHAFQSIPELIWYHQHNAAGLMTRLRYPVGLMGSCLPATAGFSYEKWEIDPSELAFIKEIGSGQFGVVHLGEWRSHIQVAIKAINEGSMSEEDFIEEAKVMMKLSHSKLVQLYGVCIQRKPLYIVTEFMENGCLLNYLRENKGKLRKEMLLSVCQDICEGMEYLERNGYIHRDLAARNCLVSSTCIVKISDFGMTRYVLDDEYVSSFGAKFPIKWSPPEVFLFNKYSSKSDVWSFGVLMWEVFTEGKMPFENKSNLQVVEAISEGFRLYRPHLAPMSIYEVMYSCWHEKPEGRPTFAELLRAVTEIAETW

COc1cc2ncnc(Nc3ccc(NC(=O)C(c4ccccc4)N4Cc5ccccc5C4=O)cc3F)c2cc1OCCCN1CCOCC1 (configuration not stated)
inhibition [1]: Active

COc1cc2c(Nc3cc(NC(=O)Cc4ccccc4)ccc3F)ncnc2cc1OCC1CCN(C)CC1
inhibition [1]: inactive

O=C(Nc1nccs1)C(c1cc(F)ccc1O)N1Cc2ccccc2C1=O (configuration not stated)
IC50 [2]: > 10000 nM

COc1cc2c(Nc3ccc(NC(=O)C(c4cc(F)ccc4F)N4Cc5ccccc5C4=O)cc3F)ncnc2cc1OCC1CCN(C)CC1 (configuration not stated)
inhibition [3]: < 25% | inhibition [4]: 50 to 75% | inhibition [5]: Active | inhibition [6]: < 25% | inhibition [7]: > 90% | solubility [8]: Insoluble | inhibition [9]: < 25% | inhibition [10]: < 25% | inhibition [11]: < 25% | inhibition [12]: 50 to 75% | inhibition [13]: < 25% | inhibition [14]: 50 to 75% | inhibition [15]: < 25% | inhibition [16]: < 25% | inhibition [17]: < 25% | inhibition [18]: Dose-dependent effect | IC50 [19]: 331 nM | inhibition [20]: < 25% | inhibition [21]: > 90% | inhibition [22]: < 25% | inhibition [23]: 50 to 75% | inhibition [24]: < 25% | IC50 [2]: 7680 nM | IC50 [25]: 3540 nM | inhibition [26]: > 90% | inhibition [27]: < 25% | IC50 [28]: 2.2 nM | clearance [29]: 16 mL/min/kg | inhibition [30]: < 25% | inhibition [31]: 50 to 75% | inhibition [32]: 50 to 75% | inhibition [33]: < 25% | inhibition [34]: < 25% | inhibition [35]: < 25% | IC50 [36]: 1240 nM | inhibition [37]: < 25% | inhibition [38]: < 25% | IC50 [39]: 3030 nM | bioavailability [40]: 0.55% | inhibition [41]: 50 to 75% | inhibition [42]: < 25% | inhibition [43]: < 25% | IC50 [44]: 640 nM | inhibition [45]: < 25% | inhibition [46]: > 90% | inhibition [47]: < 25% | inhibition [48]: < 25% | inhibition [49]: < 25% | inhibition [50]: 50 to 75%

COc1cc2c(Nc3cc(NC(=O)c4ccccc4)ccc3F)ncnc2cc1OCC1CCN(C)CC1
inhibition [1]: inactive

C=CC(=O)Nc1cc(Nc2nccc(-c3cn(C)c4ccccc34)n2)c(OC)cc1N(C)CCN(C)C [OSIMERTINIB]
IC50 [2]: 5110 nM | IC50 [36]: […] | IC50 [39]: […] | IC50 [44]: 3930 nM

COc1cc2c(Nc3ccc(NC(=O)C(C4CCCCC4)N4Cc5ccccc5C4=O)cc3F)ncnc2cc1OCC1CCN(C)CC1 (configuration not stated)
IC50 [28]: 180 nM

COc1cc2nc(N)nc(Nc3ccc(NC(=O)C(c4ccccc4)N4Cc5ccccc5C4=O)cc3F)c2cc1OC (configuration not stated)
inhibition [51]: inactive | inhibition [1]: inactive

COc1cc2ncnc(Nc3ccc(NC(=O)C(c4ccccc4)N4Cc5ccccc5C4=O)cc3F)c2cc1OCN1CCOCC1 (configuration not stated)
inhibition [1]: Active

COc1cc(N2CCC(N3CCN(C)CC3)CC2)ccc1Nc1ncc(Cl)c(Nc2ccccc2P(C)(C)=O)n1 [BRIGATINIB]
IC50 [2]: 7310 nM
